Values of other authors, collected in patent US20040156920A1, “Extracts from plant and non-plant biomass and uses thereof” (priority 2000, published 2004).

Assays:
[1] = system: classical complement pathway
male albino rats = settings: 20 mg/kg body weight daily subcutaneous
human blood PMN cells = system: human blood PMN cells; set-up: phagocytosis at higher concentration: dose or concentration left out as unconfirmed

For `CC1(C)[C@@H](O)CC[C@]2(C)[C@H]3C(=O)C=C4[C@H]5C[C@@](C)(C(=O)O)CC[C@]5(C)CC[C@@]4(C)[C@]3(C)CC[C@@H]12` [Beta-glycyrrhetinic acid], the IC50 [1] is listed as 35 µM.

For `CCCCCCCCCCCC1=C(O)C(=O)C=C(O)C1=O` [embelin], the “sperm count and other fertility parameters” value (male albino rats) is listed as “inhibition of sperm count and other fertility parameters”.

For Wheat germ agglutinin, the “phagocytosis at higher concentration” value (human blood PMN cells) is given as “strongly inhibited phagocytosis” and the “promotion of phagocytosis compared to Zymosan-A control” value (human blood PMN cells; 0.5-1.0 mg/ml) is given as 1.8 times.
